Data set [1] deals with COLO 205. The experiment in a line: Antiproliferative against human COLO 205 cells assessed as cell viability after 4 days by CCK-8 assay. In kind it is functional, cell-based. The following applies: COLO 205, 96 h.
Data set [2] addresses T1, Dual specificity protein kinase TTK (Homo sapiens, UniProt P33981).
T1 sequence (P33981 whole entry): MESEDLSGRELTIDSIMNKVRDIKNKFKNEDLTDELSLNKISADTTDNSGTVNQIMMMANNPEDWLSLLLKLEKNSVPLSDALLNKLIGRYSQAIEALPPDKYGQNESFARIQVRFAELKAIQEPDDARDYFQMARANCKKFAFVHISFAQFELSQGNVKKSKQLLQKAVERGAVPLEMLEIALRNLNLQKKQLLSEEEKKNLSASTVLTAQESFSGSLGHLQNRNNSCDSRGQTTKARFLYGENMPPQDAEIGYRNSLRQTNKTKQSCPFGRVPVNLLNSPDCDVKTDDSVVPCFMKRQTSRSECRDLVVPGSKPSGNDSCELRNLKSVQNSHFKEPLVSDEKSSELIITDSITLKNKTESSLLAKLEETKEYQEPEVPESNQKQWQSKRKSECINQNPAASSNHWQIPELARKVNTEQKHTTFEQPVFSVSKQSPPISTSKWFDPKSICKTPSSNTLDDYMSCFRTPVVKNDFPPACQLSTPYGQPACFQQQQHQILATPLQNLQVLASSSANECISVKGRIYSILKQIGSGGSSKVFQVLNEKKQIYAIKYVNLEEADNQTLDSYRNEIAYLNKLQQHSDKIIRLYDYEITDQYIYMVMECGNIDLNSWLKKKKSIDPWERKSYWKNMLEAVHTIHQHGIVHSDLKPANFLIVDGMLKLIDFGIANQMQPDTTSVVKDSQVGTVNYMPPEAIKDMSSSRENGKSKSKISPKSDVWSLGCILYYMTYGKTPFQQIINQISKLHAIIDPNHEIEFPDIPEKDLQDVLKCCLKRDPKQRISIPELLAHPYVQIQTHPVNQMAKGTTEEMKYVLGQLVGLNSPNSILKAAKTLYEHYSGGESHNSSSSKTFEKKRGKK
Briefly: Binding affinity to human TTK expressed in bacterial expression system assessed as dissociation constant at 100 nM by biochemical assay.

The nature of data set [3]: Half life in Sprague-Dawley rat at 10 mg/kg, ip by LC-MS/MS analysis. Format: ADME, organism-based. Conditions: in vivo.
Data set [4] in a line: AUC in Sprague-Dawley rat at 10 mg/kg, ip by LC-MS/MS analysis. In kind it is ADME, organism-based. More on the design: dose 10 mg/kg. Conditions: in vivo.
In data set [5] the target is T2, Protein cereblon/Dual specificity protein kinase TTK (Homo sapiens, UniProt P33981+Q96SW2). The experiment in a line: Protac activity at CRBN/TTK in human COLO 205 cells assessed as TTK degradation by measuring maximum degradation after 6 hrs by Western blotting analysis relative to control. Format: cell-based. On the technique in general: In western blotting, separated proteins are transferred to a membrane and probed.
Target sequence in this assay (Q96SW2 whole entry, looked up, one chain of several): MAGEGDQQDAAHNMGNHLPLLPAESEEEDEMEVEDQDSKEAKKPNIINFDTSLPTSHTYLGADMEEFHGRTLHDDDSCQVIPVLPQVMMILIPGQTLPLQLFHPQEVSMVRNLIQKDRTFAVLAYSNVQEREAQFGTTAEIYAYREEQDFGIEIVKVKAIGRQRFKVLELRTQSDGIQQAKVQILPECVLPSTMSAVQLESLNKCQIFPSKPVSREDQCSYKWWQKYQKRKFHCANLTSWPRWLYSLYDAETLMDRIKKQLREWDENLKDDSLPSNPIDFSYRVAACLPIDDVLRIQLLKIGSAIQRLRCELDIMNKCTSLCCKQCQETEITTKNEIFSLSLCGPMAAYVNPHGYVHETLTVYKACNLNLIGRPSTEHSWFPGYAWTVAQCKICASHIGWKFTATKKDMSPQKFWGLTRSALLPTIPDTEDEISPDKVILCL

Data set [6] deals with T2, Protein cereblon/Dual specificity protein kinase TTK. The experiment in a line: Protac activity at CRBN/TTK in human COLO 205 cells assessed as degradation of TTK measured after 6 hrs by Western blotting analysis. Format: cell-based.
Target sequence in this assay (Q96SW2 whole entry, one chain of several): as the sequence (Q96SW2 whole entry, looked up, one chain of several) above
Data set [7] has the same target. The experiment in a line: Protac activity at CRBN/TTK in human HCT-116 cells assessed as degradation of TTK measured after 6 hrs by Western blotting analysis. In kind it is cell-based.
Target sequence in this assay (Q96SW2 whole entry, one chain of several): as the sequence (Q96SW2 whole entry, looked up, one chain of several) above
Data set [8] shares this target. The experiment in a line: Protac activity at CRBN/TTK in human HCT-116 cells assessed as TTK degradation by measuring maximum degradation after 6 hrs by Western blotting analysis relative to control. In kind it is cell-based.
Target sequence in this assay (Q96SW2 whole entry, looked up, one chain of several): as above
For data set [9] the target is unchanged. Briefly: Protac activity at CRBN/TTK in human LoVo cells assessed as degradation of TTK measured at […] for 6 hrs by Western blotting analysis. In kind it is cell-based. Conditions: dose lower 5.0 µM.
Target sequence in this assay (Q96SW2 whole entry, looked up, one chain of several): as above
For data set [10] the target is unchanged. The experiment in a line: Protac activity at CRBN/TTK in human HCT-8 cells assessed as degradation of TTK measured at […] for 6 hrs by Western blotting analysis. Conditions: dose lower 5.0 µM. In kind it is cell-based.
Target sequence in this assay (Q96SW2 whole entry, looked up, one chain of several): as above
The target is the same in data set [11]. The experiment in a line: Protac activity at CRBN/TTK in human […] cells assessed as degradation of TTK measured at […] for 6 hrs by Western blotting analysis. Format: cell-based. Conditions: dose lower 5.0 µM.
Target sequence in this assay (Q96SW2 whole entry, looked up, one chain of several): as above
The test system of another data set is LoVo. Briefly: Antiproliferative against human LoVo cells assessed as cell viability at 0.0001 to 100 uM at day 4 by CCK-8 assay. Format: functional, cell-based. The following applies: dose 0.0001-100 µM.
A further data set relates to HCT-8. Briefly: Antiproliferative against human HCT-8 cells assessed as cell viability at 0.0001 to 100 uM at day 4 by CCK-8 assay. In kind it is functional, cell-based. The following applies: dose 0.0001-100 µM.
A further data set has as its system HCT-29. The experiment in a line: Antiproliferative against human […] cells assessed as cell viability at 0.0001 to 100 uM at day 4 by CCK-8 assay. Conditions: dose 0.0001-100 µM. Format: functional, cell-based. In general terms: Tetrazolium dyes change colour on reduction, which living cells bring about.
Data set [12] addresses T2, Protein cereblon/Dual specificity protein kinase TTK. Briefly: Protac activity at CRBN/TTK in human COLO 205 cells assessed as induction of TTK degradation at 5 nM after 6 to 8 hrs post washout by Western blot analysis. Format: cell-based. Conditions: time 6-8 hrs.
Target sequence in this assay (Q96SW2 whole entry, looked up, one chain of several): as above
For data set [13] the target is unchanged. The experiment in a line: Protac activity at CRBN/TTK in human COLO 205 cells assessed as induction of TTK degradation at 5 nM after 16 hrs post washout by Western blot analysis. Format: cell-based.
The target is the same in data set [14]. The experiment in a line: Protac activity at CRBN/TTK in human COLO 205 cells assessed as induction of TTK degradation in presence of N-[4-[2-[2-methoxy-4-(4-methylpiperazin-1-yl)anilino]-5-methyl-7-oxo-pyrido[2,3-d]pyrimidin-8-yl]cyclohexyl]propanamide after 6 hrs by Western blotting relative to control. In kind it is cell-based.
Data set [15] has the same target. Briefly: Protac activity at CRBN/TTK in human COLO 205 cells assessed as induction of TTK degradation in presence of MG132 incubated for 1 hr by Western blotting analysis relative to control. In kind it is cell-based.
For data set [16] the target is unchanged. Briefly: In vivo protac activity at CRBN/TTK in human COLO-205 cells xenografted in CB17-SCID mouse at 10 to 20 mg/kg, ip daily for 16 days by western blotting analysis. In kind it is organism-based. Conditions: dose 10-20 mg/kg, time 16.0 day.
Data set [17] has as its system COLO 205. Briefly: Antitumor activity against human COLO205 cells xenografted in CB17-SCID mouse assessed as tumor growth inhibition at 20 mg/kg, ip daily for 16 days relative to control. In kind it is functional. Conditions: COLO 205, ip, 384 h, time 16 day, read-out: TGI.
Data set [18] in a line: Toxicity in CB17-SCID mouse xenografted with human […] cells assessed as effect on body weight at 10 to 20 mg/kg, ip daily for 16 days. Format: organism-based, COLO 205. Conditions: in vivo, 384 h, dose 10-20 mg/kg, time 16 day.
The subject of data set [19] is COLO 205. The experiment in a line: Antitumor activity against human COLO205 cells xenografted in CB17-SCID mouse assessed as tumor growth inhibition at 10 mg/kg, ip daily for 16 days relative to control. In kind it is functional, organism-based. The following applies: time 16.0 day. A general note: In xenograft studies the graft and the host belong to different species.

The source made the active and inactive calls. No cut-off for these calls is given here.

Usually IC50 stands for the concentration that gives 50% inhibition. For orientation: Kd means a measure of binding affinity in units of concentration. A word on the half-life: it is the time in which the quantity being followed falls by half. A low value points to fast loss. Broadly, the AUC is concentration integrated over time. Lower therefore signals less exposure. In general, Emax refers to the size of the effect at its maximum, as opposed to the concentration needed. As usually defined, the DC50 is the concentration at which degradation of the target reaches its halfway point.

In the case of `CCC(=O)N[C@H]1CC[C@@H](n2c(=O)cc(C)c3cnc(Nc4ccc(N5CCN(C)CC5)cc4OC)nc32)CC1`, the IC50 in the data set on COLO 205 [1] worked out at 800 nM. Besides, the dissociation constant (Kd) in [2] came to 0.7 nM.
Take `CCC(=O)N[C@H]1CC[C@@H](n2c(=O)cc(C)c3cnc(Nc4ccc(N5CCN(C(=O)CCCC#Cc6ccc7c(c6)CN(C6CCC(=O)NC6=O)C7=O)CC5)cc4OC)nc32)CC1` (stereo partly drawn): in data set [3], the half-life was 4.3 h. Further, in data set [4], the exposure (AUC) worked out at 2.23 µg·h/mL. For the same compound, the Emax in data set [5] was 88%; in data set [8], 80%. Moreover, the DC50 in data set [6] worked out at 1.7 nM; in [7], 5.8 nM. The Activity entry (in [9]; in data set [10]; in data set [11]; in the data set on LoVo; with HCT-8; in the data set with HCT-29) was “Dose-Dependent Effect” throughout. In addition, the Activity result in data set [18] was “Non-Toxic”. Also, the outcome in data set [12] and in data set [16] was Active. Besides, the result (in [13]; in data set [14]; in data set [15]; in the data set with COLO 205 [19]) was inactive. In addition, the half-inhibitory concentration (IC50) with COLO 205 [1] is 100 nM. Further, the inhibition in vivo at 20 mg/kg in the data set on COLO 205 [17] was 46%.

The values are drawn from ChEMBL document CHEMBL5038659, “Discovery of the First Examples of Threonine Tyrosine Kinase PROTAC Degraders” (J Med Chem, 2022).
